# Reference: article PMC5740070 (Scientific Reports, 2017)
# Read-outs that look alike come from different tables or passages of the source.
# What was measured:
# ICK = biological target: T1, ICK (Homo sapiens, UniProt Q9UPZ9); assay: Reaction Biology radiometric filter binding kinase assay (10-point IC50 converted to Ki); assay type: biochemical; settings: ATP near Km; Ki calculated from 10-point IC50
# T1 construct: purchased Reaction Biology Corp (contract assay)
# T1 sequence (Q9UPZ9 1-632): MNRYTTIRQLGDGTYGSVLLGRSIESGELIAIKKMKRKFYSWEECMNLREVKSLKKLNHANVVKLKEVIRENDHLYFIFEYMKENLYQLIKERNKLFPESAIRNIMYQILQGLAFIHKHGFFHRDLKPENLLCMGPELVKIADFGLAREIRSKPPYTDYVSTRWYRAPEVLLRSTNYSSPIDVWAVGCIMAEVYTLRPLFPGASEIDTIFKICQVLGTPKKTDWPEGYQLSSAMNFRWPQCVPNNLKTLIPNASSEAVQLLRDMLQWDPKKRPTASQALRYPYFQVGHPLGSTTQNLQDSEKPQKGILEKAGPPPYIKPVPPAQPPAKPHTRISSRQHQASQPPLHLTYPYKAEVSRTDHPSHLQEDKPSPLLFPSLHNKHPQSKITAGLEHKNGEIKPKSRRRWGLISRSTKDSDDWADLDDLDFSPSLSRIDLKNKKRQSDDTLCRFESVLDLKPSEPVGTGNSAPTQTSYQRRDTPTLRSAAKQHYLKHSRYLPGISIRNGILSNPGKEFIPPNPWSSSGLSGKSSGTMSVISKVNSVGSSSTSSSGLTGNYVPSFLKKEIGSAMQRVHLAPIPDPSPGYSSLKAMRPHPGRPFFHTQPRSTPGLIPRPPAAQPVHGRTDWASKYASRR
# Description: (§1) Ki values for each target were calculated and compared for the two drugs (Fig. 1b–d).
# (§2) The ATP concentration was near the Km values for the respective kinases. For each kinase, an IC50 value was calculated from a 10-point concentration curve of the test article and converted to Ki values.
# MAK = biological target: T2, MAK (Homo sapiens, UniProt P20794); assay: as above; assay type: biochemical; settings: ATP near Km; Ki calculated from 10-point IC50
# T2 construct: purchased Reaction Biology Corp (contract assay)
# T2 sequence (P20794 1-623): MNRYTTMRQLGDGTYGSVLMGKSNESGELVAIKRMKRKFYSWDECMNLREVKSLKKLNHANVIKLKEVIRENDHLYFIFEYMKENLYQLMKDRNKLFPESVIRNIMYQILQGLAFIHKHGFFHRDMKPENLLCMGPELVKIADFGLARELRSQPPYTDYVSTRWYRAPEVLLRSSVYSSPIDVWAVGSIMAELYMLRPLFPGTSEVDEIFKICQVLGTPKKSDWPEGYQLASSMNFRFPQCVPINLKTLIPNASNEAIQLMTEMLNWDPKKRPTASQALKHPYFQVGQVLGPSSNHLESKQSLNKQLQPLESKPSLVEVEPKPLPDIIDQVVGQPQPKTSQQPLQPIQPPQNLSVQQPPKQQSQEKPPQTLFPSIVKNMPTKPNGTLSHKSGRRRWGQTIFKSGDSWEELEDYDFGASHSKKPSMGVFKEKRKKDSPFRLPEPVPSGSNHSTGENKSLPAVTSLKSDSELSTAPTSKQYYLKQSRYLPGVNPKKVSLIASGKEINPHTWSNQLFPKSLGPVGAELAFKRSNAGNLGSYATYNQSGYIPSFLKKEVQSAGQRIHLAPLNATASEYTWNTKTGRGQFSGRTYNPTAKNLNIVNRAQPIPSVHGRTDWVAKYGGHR
# Description: as §1, §2
# [1] = cited from earlier work
# BCL-xL in OCI-LY10 cells = assay: Western blot for BCL-xL in ABC cell lines; assay type: cell-based; settings: voruciclib 5 µM, venetoclax 50 nM or combination, 24 hours
# From the text: Error bars represent SEM.
# ECL chemiluminescent substrate (Pierce) and autoradiographic film (ThermoFisher) were used for detection of signals. MCL-1 and BCL-xL signals were quantified using Image Studio Lite (LICOR Biosciences) using β actin for normalization. Student’s t-test was used to compare mean signal intensities across different conditions. The level of significance was set at 0.05.
# [2] = Tolerability and body weight in systemic efficacy studies
# Description: For systemic drug efficacy studies, mice were enrolled when tumors reached an average volume of 150–200 mm^3. Assignment to treatment groups was carried out via stratified randomization. Tumor dimensions were measured twice a week using digital calipers along with recording of body weight. Tumor volume was calculated using formula V = π/6 (length x width x height) in mm^3 [46]. Animals were removed from the study when either any one of the three measured dimensions of the tumor exceeded 2 cm, volume exceeded 2000 mm^3, ulceration was observed or if body weight loss greater than 20% was recorded. […] Control cohorts were administered vehicles of both drugs, and each single agent cohort was administered the vehicle of the other drug.
# [3] = tested on: relapsed or refractory non-Hodgkin lymphoma (NHL); set-up: method as in PMID 28095146; settings: relapsed or refractory NHL patients, venetoclax alone; cited from earlier work
# CDK1/cyc A = biological target: T3, CDK1/cyc A (Homo sapiens, UniProt P06493); assay: Reaction Biology radiometric filter binding kinase assay (10-point IC50 converted to Ki); assay type: biochemical; settings: ATP near Km; Ki calculated from 10-point IC50
# T3 construct: purchased Reaction Biology Corp (contract assay)
# Description: as §1, §2
# CDK1/cyc B = biological target: T4, CDK1/cyc B (Homo sapiens, UniProt P06493); assay: as above; assay type: biochemical; settings: ATP near Km; Ki calculated from 10-point IC50
# T4 construct: purchased Reaction Biology Corp (contract assay)
# Description: as §1, §2
# CDK4/cyc D1 = biological target: T5, CDK4/cyc D1 (Homo sapiens, UniProt P11802); assay: as above; assay type: biochemical; settings: ATP near Km; Ki calculated from 10-point IC50
# T5 construct: purchased Reaction Biology Corp (contract assay)
# Description: as §1, §2
# CDK6/cyc D1 = biological target: T6, CDK6/cyc D1 (Homo sapiens, UniProt Q00534); assay: as above; assay type: biochemical; settings: ATP near Km; Ki calculated from 10-point IC50
# T6 construct: purchased Reaction Biology Corp (contract assay)
# Description: as §1, §2
# [4] = Modelled plasma drug levels from Phase 1 pharmacokinetic data; settings: humans, 250 mg/day oral, modelled from Phase 1 PK data
# Description: (Fig. 2a). Predicted mean plasma levels, once steady state is achieved after about 5 oral doses, fluctuate between 2 and 3.5 μM with an average near 3 μM for our model parameters. […] This was accompanied by apoptosis as represented by cleaved PARP induction starting at 1-2 μM in all models (Figs 2c, S2 and S5). Complete MCL-1 repression was typically observed at 3 μM exposures. […] Maximum, average and minimum plasma levels are shown by the red, green and blue lines respectively. The parameter set derived from the PK data after 13/15 days dosing was used for the 15-day simulation for the steady state levels attained after repeat dosing. (b) Western blot analyses for RNA POL II ([…]), MCL-1, cPARP using protein lysates isolated from SU-DHL-4 cells. β actin was used as the loading control. […] Tumors were resected 4 hours after the final dose and processed for both Western blot and IHC analyses. β actin was used as loading control for the Western blot where each lane represents an individual tumor (Tumor (T) #1-9). MCL-1 signals, normalized to β actin, were quantified and the average MCL-1 signal for each condition relative to vehicle is shown in the corresponding bar graph. Error bars represent standard error of the mean (SEM). […] DAPI was used as counterstain for IHC. Representative images are shown. Scale bar: 1000 μm.
# [5] = tested on: MCL-1 and cPARP in U2932, RIVA, OCI-LY10, NU-DHL-1, SU-DHL-4 and SU-DHL-6 cells; assay: Western blot for MCL-1 and cPARP in DLBCL cell lines; assay type: cell-based; settings: 0.5 µM–5 µM for 6 hours
# Description: (§3) Maximum, average and minimum plasma levels are shown by the red, green and blue lines respectively. The parameter set derived from the PK data after 13/15 days dosing was used for the 15-day simulation for the steady state levels attained after repeat dosing. (b) Western blot analyses for RNA POL II (pSer2), MCL-1, cPARP using protein lysates isolated from SU-DHL-4 cells. β actin was used as the loading control. […] Tumors were resected 4 hours after the final dose and processed for both Western blot and IHC analyses. β actin was used as loading control for the Western blot where each lane represents an individual tumor (Tumor (T) #1-9). MCL-1 signals, normalized to β actin, were quantified and the average MCL-1 signal for each condition relative to vehicle is shown in the corresponding bar graph. Error bars represent standard error of the mean (SEM). Asterisks (*) denote p value < 0.05 calculated using the Student’s t-test for comparison of vehicle vs treatment. DAPI was used as counterstain for IHC. Representative images are shown. Scale bar: 1000 µm.
# RI-1, also known as RIVA, U2932, NU-DHL-1 cell lines were purchased from DSMZ. SU-DHL-4, SU-DHL-6 were purchased from ATCC. All lines were cultured in RPMI 1640 with L-Glutamine (ThermoFisher),10% fetal bovine serum (Thermofisher), at 37 degrees Celsius, 5% CO2. […]
# RNA POL II (pSer2) = assay: Western blot for RNA POL II (pSer2) in SU-DHL-4 cells; assay type: cell-based
# [6] = tested on: MCL-1 in OCI-LY10 xenograft; assay: Western blot and IHC for MCL-1 in tumors after oral dosing; assay type: in vivo, mice; settings: 100 mpk or 200 mpk oral daily for 5 days, tumors resected 4 hours after final dose
# Description: as §3, with “µm. […]” for “µm.”
# [7] = tested on: BCL-xL in OCI-LY10 xenograft; assay: Western blot for BCL-xL in tumor lysates after oral dosing; assay type: in vivo, mice; settings: 100 mpk or 200 mpk oral gavage for 5 days, compared to vehicle
# From the text: Each lane represents an individual tumor (Tumor (T) #1–9). BCL-xl signals, normalized to β actin, were quantified and the average BCL-xl signal for each condition relative to vehicle is shown in the corresponding bar graph. Error bars represent SEM. Asterisks (*) denote p value < 0.05 calculated using the Student’s t-test for comparison of vehicle vs treatment.
# 20 micrograms of protein lysate from each condition were subjected to SDS-PAGE and transferred to 0.45 micron PVDF membranes (ThermoFisher) using manufacturer’s protocol, blocked for one hour in 5% milk at room temperature, probed with primary antibodies for cPARP (rabbit CST 5625), MCL-1 (rabbit CST 39224) or BCL-xL (rabbit CST 2764), followed by corresponding HRP-conjugated secondary antibodies (Jackson ImmunoResearch). β actin (mouse CST 12262) was used as loading control. ECL chemiluminescent substrate (Pierce) and autoradiographic film (ThermoFisher) were used for detection of signals. MCL-1 and BCL-xL signals were quantified using Image Studio Lite (LICOR Biosciences) using β actin for normalization. Student’s t-test was used to compare mean signal intensities across different conditions. The level of significance was set at 0.05.
# [8] = set-up: method as in earlier work; settings: 350 mg/day, one patient out of 24; cited from earlier work
# T6 sequence (Q00534 whole entry): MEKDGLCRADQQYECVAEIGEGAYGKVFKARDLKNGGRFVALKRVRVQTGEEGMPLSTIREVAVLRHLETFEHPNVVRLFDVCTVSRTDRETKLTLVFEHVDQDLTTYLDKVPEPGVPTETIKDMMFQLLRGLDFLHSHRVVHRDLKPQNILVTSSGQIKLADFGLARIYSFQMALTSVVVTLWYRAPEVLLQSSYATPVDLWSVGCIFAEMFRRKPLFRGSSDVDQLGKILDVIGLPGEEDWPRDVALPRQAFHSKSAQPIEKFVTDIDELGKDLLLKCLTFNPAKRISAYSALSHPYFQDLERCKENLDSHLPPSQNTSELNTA
# T6 sequence (P24385 whole entry partner): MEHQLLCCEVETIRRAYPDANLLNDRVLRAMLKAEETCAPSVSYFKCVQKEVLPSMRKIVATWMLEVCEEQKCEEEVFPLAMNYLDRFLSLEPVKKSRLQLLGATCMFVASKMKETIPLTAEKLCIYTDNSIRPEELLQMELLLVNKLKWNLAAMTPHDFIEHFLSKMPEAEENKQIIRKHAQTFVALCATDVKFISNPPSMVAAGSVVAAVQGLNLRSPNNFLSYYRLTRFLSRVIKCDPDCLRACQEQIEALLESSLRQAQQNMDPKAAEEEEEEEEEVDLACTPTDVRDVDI
# T5 sequence (P11802 whole entry): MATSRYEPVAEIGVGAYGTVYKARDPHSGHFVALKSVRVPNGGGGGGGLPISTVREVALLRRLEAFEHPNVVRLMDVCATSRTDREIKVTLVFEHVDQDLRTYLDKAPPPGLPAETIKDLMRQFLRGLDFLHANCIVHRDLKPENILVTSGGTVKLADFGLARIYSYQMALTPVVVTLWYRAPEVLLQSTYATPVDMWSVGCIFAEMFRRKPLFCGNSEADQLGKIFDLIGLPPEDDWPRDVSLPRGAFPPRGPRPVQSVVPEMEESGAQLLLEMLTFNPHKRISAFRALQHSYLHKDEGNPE
# T5 sequence (P24385 whole entry partner): as the sequence (P24385 whole entry partner) above
# T4 sequence (P06493 whole entry): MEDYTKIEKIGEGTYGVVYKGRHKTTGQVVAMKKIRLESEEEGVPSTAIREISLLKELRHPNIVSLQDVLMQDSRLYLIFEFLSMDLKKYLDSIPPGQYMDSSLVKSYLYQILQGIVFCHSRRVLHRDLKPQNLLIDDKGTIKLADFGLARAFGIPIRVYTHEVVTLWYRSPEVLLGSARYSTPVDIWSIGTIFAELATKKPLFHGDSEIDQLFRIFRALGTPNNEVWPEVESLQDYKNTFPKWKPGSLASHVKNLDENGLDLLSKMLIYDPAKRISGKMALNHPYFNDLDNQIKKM
# T4 sequence (P14635 whole entry partner): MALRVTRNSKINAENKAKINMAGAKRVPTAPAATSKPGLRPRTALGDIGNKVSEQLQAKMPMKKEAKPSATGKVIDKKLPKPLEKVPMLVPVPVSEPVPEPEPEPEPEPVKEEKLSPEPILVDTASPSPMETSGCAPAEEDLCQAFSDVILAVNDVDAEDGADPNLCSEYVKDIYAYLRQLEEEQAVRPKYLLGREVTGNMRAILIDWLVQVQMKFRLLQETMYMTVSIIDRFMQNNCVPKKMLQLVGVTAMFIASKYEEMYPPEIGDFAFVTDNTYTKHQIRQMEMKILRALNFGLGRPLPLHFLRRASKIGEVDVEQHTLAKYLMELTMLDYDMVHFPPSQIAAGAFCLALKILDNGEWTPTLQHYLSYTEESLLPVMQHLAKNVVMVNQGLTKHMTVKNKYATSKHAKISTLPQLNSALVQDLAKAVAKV
# T3 sequence (P06493 whole entry): as the sequence (P06493 whole entry) above
# T3 sequence (P20248 whole entry partner): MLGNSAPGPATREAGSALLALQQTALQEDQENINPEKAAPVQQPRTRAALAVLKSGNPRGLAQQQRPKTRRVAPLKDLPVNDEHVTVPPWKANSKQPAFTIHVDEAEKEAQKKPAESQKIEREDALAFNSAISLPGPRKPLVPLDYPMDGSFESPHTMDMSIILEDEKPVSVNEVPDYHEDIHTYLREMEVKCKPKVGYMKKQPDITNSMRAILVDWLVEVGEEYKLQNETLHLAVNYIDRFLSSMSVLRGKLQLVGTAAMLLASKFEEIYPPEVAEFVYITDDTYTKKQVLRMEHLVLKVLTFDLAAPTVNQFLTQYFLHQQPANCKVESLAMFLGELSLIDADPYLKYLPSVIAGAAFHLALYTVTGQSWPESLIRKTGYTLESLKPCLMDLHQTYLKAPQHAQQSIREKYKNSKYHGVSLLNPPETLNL
smiles,measurement,setting,value
"CN1CC[C@H](c2c(O)cc(O)c3c(=O)cc(-c4ccccc4Cl)oc23)[C@H](O)C1 [Flavopiridol, reference compound]",Ki,ICK,11.8 nM
same,Ki,MAK,1.08 nM
same,oral bioavailability,[1],neither of these two agents are orally bioavailable
"CC1(C)CCC(CN2CCN(c3ccc(C(=O)NS(=O)(=O)c4ccc(NCC5CCOCC5)c([N+](=O)[O-])c4)c(Oc4cnc5[nH]ccc5c4)c3)CC2)=C(c2ccc(Cl)cc2)C1 [Venetoclax, reference compound]",BCL-xL levels in cell lysates,BCL-xL in OCI-LY10 cells,elevated levels of BCL-xL
same,"tolerability, toxicity and body weight changes","[2]; xenografted mice (U2932, RIVA, OCI-LY10, NU-DHL-1, SU-DHL-4), oral regimens, first two cycles of treatment",not induce any significant body weight changes
same,median progression-free survival,[3],1 month
same,overall response rate,[3],18%
CN1CC[C@@H](c2c(O)cc(O)c3c(=O)cc(-c4ccc(C(F)(F)F)cc4Cl)oc23)[C@@H]1CO [Voruciclib],Ki,CDK1/cyc A,9.1 nM
same,Ki,CDK1/cyc B,5.4 nM
same,Ki,CDK4/cyc D1,3.96 nM
same,Ki,CDK6/cyc D1,2.92 nM
same,Ki,ICK,481 nM
same,Ki,MAK,259 nM
same,Predicted mean plasma levels at steady state (average),[4],~3 µM
same,exposure giving complete MCL-1 repression,[5]; 6 DLBCL models,~3 µM
same,concentration at which cleaved PARP induction (apoptosis) starts,[5]; all 6 DLBCL models,1 to 2 µM
same,phosphorylation of RNA POL II,RNA POL II (pSer2),inhibition of phosphorylation of RNA POL II
same,MCL-1 protein expression in tumors,[6],decreased in a dose-dependent manner
same,BCL-xL levels in tumor lysates,[7],elevated levels of BCL-xL
same,BCL-xL levels in cell lysates,BCL-xL in OCI-LY10 cells,elevated levels of BCL-xL
same,"tolerability, toxicity and body weight changes","[2]; mouse, in vivo, po",not induce any significant body weight changes
same,patients with dose-limiting diarrhea,[8],4%
same,oral bioavailability,"[1]; has been shown, reference not given",orally bioavailable
CCc1cnn2c(NCc3ccc[n+]([O-])c3)cc(N3CCCC[C@H]3CCO)nc12 [dinaciclib],oral bioavailability,[1],neither of these two agents are orally bioavailable
